How the values were obtained:
[1] = molecular target: Glutamate receptor ionotropic, kainate 2 (Homo sapiens, UniProt Q13002); assay: Binding affinity for human GluR6 expressed in HEK293 cells using [3]H-kainate; format: cell-based
[2] = molecular target: T1, Glutamate receptor ionotropic, kainate 5 (Homo sapiens, UniProt Q16478); assay: Binding affinity towards Kai-2 using [3]H-kainate as the radioligand
T1 sequence (Q16478 whole entry): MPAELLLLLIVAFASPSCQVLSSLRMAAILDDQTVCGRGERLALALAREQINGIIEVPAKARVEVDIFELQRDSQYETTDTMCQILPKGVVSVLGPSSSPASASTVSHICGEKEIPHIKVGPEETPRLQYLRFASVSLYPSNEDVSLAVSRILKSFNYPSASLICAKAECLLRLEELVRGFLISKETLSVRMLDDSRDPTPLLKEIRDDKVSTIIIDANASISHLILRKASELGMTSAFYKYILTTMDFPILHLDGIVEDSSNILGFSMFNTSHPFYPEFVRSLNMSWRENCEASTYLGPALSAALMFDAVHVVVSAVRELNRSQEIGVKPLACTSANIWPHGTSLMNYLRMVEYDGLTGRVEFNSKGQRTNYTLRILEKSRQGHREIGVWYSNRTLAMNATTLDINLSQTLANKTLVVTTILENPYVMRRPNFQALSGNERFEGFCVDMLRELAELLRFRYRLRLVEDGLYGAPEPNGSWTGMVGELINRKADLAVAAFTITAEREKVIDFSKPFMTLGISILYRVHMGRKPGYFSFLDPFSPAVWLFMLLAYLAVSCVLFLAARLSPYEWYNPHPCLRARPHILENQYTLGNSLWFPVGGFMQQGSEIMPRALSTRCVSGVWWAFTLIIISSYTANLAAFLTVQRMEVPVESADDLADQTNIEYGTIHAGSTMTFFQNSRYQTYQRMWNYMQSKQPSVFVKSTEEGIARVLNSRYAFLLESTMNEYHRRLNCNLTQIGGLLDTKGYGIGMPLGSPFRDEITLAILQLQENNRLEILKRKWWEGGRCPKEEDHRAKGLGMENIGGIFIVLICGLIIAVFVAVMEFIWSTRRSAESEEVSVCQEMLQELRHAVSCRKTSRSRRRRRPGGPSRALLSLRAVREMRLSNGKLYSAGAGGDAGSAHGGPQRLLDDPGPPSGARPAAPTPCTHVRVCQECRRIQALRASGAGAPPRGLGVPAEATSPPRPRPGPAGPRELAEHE

[3] = molecular target: Glutamate receptor ionotropic, kainate 1 (Homo sapiens, UniProt P39086); assay: Binding affinity towards cloned human GluR5 subunit stably expressed in cultured HEK293 cells using [3]H-kainate as radioligand; format: cell-based
Glutamate receptor ionotropic, kainate 1, sequence (P39086 whole entry): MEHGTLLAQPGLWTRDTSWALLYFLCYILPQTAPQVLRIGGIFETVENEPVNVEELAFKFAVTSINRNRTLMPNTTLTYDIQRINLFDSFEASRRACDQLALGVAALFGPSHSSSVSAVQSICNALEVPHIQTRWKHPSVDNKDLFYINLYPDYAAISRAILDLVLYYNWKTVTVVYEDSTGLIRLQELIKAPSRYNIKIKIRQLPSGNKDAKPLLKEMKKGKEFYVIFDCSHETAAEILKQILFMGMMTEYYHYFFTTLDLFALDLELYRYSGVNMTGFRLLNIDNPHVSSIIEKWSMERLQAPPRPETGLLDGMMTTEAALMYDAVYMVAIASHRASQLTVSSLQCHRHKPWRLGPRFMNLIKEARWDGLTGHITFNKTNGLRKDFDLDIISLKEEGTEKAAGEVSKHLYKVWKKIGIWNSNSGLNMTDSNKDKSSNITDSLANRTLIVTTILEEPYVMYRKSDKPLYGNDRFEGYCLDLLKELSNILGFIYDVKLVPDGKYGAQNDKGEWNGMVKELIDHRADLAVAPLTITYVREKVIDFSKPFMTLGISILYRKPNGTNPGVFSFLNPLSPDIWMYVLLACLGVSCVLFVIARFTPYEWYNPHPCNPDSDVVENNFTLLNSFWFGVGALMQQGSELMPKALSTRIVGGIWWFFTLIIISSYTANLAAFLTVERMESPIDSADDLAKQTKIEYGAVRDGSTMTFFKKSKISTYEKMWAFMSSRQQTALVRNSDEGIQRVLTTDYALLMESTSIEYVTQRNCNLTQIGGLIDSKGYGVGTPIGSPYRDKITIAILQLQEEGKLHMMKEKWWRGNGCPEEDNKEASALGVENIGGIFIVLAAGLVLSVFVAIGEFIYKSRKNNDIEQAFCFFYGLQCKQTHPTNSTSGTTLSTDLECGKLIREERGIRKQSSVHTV

[4] = molecular target: T1, Glutamate receptor ionotropic, kainate 5; assay: Binding affinity towards cloned human Kai-2 subunit stably expressed in cultured HEK293 cells using [3]H-kainate as radioligand; format: cell-based

Glutamate receptor ionotropic, kainate 2, sequence (Q13002 whole entry): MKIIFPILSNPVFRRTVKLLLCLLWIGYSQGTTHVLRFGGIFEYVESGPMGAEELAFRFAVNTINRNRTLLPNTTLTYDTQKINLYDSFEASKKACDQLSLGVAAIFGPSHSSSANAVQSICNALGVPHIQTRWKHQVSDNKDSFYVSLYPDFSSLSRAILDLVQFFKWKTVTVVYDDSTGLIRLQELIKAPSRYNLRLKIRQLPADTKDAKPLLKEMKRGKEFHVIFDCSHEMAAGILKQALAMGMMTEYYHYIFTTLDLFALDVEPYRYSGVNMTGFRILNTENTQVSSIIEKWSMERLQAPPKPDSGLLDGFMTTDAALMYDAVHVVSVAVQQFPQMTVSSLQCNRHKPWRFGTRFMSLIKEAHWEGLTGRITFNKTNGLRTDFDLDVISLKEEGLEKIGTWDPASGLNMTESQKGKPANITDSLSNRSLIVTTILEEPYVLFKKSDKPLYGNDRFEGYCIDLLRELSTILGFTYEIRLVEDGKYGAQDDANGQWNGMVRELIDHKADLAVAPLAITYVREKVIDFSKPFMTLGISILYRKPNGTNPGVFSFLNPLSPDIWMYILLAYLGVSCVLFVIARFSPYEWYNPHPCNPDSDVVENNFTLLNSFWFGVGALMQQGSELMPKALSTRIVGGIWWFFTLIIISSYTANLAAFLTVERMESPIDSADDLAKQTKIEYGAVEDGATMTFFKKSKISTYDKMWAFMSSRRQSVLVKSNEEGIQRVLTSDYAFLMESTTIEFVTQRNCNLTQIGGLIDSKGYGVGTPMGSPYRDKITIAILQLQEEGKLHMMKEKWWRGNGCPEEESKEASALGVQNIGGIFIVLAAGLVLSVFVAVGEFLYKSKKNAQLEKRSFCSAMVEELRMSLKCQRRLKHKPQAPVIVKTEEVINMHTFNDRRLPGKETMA

Compound	Ki [1] [µM]	Ki [2] [µM]	Ki [3] [µM]	Ki [4] [µM]
NCc1ccn(-c2cc3c(cc2[N+](=O)[O-])[nH]c(=O)c(=O)n3CC(=O)O)c1	1.5	9.8		
O=C(O)Cn1c(=O)c(=O)[nH]c2cc(C(F)(F)F)c(-n3ccc(CNC(=O)Nc4ccc([N+](=O)[O-])cc4)c3)cc21	0.61	12	0.1	
O=C(O)Cn1c(=O)c(=O)[nH]c2cc([N+](=O)[O-])c(-n3cccc3)cc21	3.9			1.3
O=C(O)Cn1c(=O)c(=O)[nH]c2cc([N+](=O)[O-])c(-n3ccc(C(=O)O)c3)cc21	5.8	11	1.4	
O=C(O)Cn1c(=O)c(=O)[nH]c2cc([N+](=O)[O-])c(-n3ccc(CN4CCCCC4)c3)cc21	28			> 30
O=C(O)CCn1c(=O)c(=O)[nH]c2cc([N+](=O)[O-])c(-n3cccc3)cc21	1.2		2.4	25
O=C(O)Cn1c(=O)c(=O)[nH]c2cc([N+](=O)[O-])c(-n3ccc(CN4CCC(c5ccccc5)CC4)c3)cc21	3.6			18
O=C(O)Cn1c(=O)c(=O)[nH]c2cc([N+](=O)[O-])c(-n3ccc(CNCCCc4ccccc4)c3)cc21	6.2			20
O=C(O)Cn1c(=O)c(=O)[nH]c2cc([N+](=O)[O-])c(-n3ccc(CN4CCN(Cc5ccccc5)CC4)c3)cc21	4.1			20
CN(Cc1ccccc1)Cc1ccn(-c2cc3c(cc2[N+](=O)[O-])[nH]c(=O)c(=O)n3CCC(=O)O)c1	23			> 30
O=C(O)Cn1c(=O)c(=O)[nH]c2cc([N+](=O)[O-])c(-n3ccc(CN4CCN(CCc5ccccc5)CC4)c3)cc21	1.4			25

— ChEMBL document CHEMBL1135949, “Pyrrolylquinoxalinediones carrying a piperazine residue represent highly potent and selective ligands to the homomeric kainate receptor GluR5” (Bioorg Med Chem Lett, 2002)
